The values below come from patent publication US4778912A, “Phospholipid derivatives” (priority 1985, dated 1988).

In data set [1] the test system is platelet. Particulars: background; cited from earlier work.
For data set [2] the following is noted: background, cited from earlier work.
Data set [3] deals with mouse. Particulars: iv administration; cited from earlier work.
Data set [4] deals with platelet. Description: Effect on platelet: platelet aggregation (PAF activity) in platelet rich plasma. Particulars: Oryctolagus cuniculus, Table 5, rabbit PRP, 400,000 cells/1 μl, read-out: PAF activity EC50 (drug concentration causing 50% platelet aggregation). The class given is cell-based, male rabbit. The method, then:
This PRP was further centrifuged at 3,000 r.p.m. for 15 minutes to obtain platelet poor plasma (PPP). By using this PPP, the PRP was diluted and so adjusted as to have a constant platelet concentration (400,000 cells/1 μl). […] Platelet aggregation was measured by using a platelet aggregometer (manufactured by Rika Denki Co. in Japan).

In data set [5] the test system is Sarcoma 180 cells. The data set can be described thus: Antitumor action in ICR mice inoculated intraperitoneally with Sarcoma 180 cells (life-span prolongation, 60-day survivors). The class given is in vivo.
Protocol: The assay was carried out under the same conditions as Test Example 1-i.
In data set [6] the test system is MM46 cells. The data set can be described thus: Antitumor action in C3H/He mice inoculated intraperitoneally with MM46 cells (life-span prolongation, 60-day survivors). The class given is in vivo. Particulars: Table 2.
Protocol: (i) C3H/He mice (a group consisting of five mice) were inoculated intraperitoneally with 1×10^4 MM46 cells per mouse, and each mouse was intraperitoneally given 0.25 mg of drug for consecutive 4 days, starting from the second day after the inoculation.
(ii) In the above test, each mouse was inoculated intraperitoneally with 1×10^5 MM46 cells and 0.25 mg of drug was given intraperitoneally to each mouse for consecutive 4 days, starting from the second day after the inoculation.
The assay was carried out under the same conditions as Test Example 2-i.
Data set [7] has as its system tumor. As to conditions: background; cited from earlier work.

Entries after “also recorded” stand apart in the source; their conditions may differ. Where two headings read alike, the source gives them in different places.

Regarding `CCCCCCCCCCCCCCCCCCOCC(COP(=O)([O-])OCC[N+](C)(C)C)OC(C)=O` (stereo not drawn) [Compound (II)], in data set [1], the “platelet activating / platelet aggregation action (in words)” value is “strong platelet aggregation action”. Also, the “side effects and toxicity (in words)” value in data set [2] (listed as PAF) was “neutrophil-activating, tissue-impairing, vessel-permeability enhancing, blood-pressure lowering, heart function inhibiting, bronchoconstrictor and other actions; also recorded: toxicity for warm-blooded animals is very high”. Besides, the “fatal dose for a mouse” value in data set [3] is recorded as “about 50 mg/kg”.

As for `CCCCCCCCCCCCCCCCCCOCC(COP(=O)([O-])OCC[N+](C)(C)C)OC` (stereo not drawn) [Compound (III), reference compound], the EC50 in data set [4] is 30 µM. For the same molecule, the “life-span prolongation ratio compared with the control group (in words)” value in data set [5] (1 mg/mouse, for its toxicity) is “smaller life-span prolongation ratio than the control group”. Moreover, the responders at 0.33 mg in data set [5] (Sarcoma-180, 1440 h, Table 1, 0.33 mg/mouse ip, three times, read-out: 60th day: No. of survived mice/No. of tested mice (converted)) is 0%. For the same molecule, the response vs control in vivo at 0.33 mg in data set [5] (Table 1, 1×10^5 Sarcoma 180 cells ip, 0.33 mg/mouse ip, three times (1 hour, 1 day, 2 days after inoculation), only mice surviving less than 60 days, read-out: Life-span prolongation ratio (T/C %)) turned out to be 162%. In addition, the responders at 0.25 mg in data set [6] (1440 h, 1×10^4 MM46 cells, 0.25 mg/mouse ip, 4 days, read-out: 60th day: No. of survived mice/No. of tested mice (converted)) was 0%. Also, the response vs control in vivo at 0.25 mg in data set [6] (Mus musculus, ip, 1×10^4 MM46 cells ip, 0.25 mg/mouse ip for consecutive 4 days from second day, only mice surviving less than 60 days, read-out: Life-span prolongation ratio (T/C %)) amounted to 155%. Besides, the “antitumor action (in words)” value in data set [7] was “exhibit an antitumor action”. Further, the “platelet activating / platelet aggregation action (in words)” value in data set [1] is “possess a platelet activating action”. Besides, the “side effects and toxicity (in words)” value in data set [2] was “both blood-pressure lowering and topically irritating actions are observed; also recorded: high degree of its toxicity”.
